Measurements from paper PMC10938783, “A novel pan-PI3K inhibitor KTC1101 synergizes with anti-PD-1 therapy by targeting tumor suppression and immune activation” (Molecular Cancer, 2024).

Columns and labels:
CAL33 tumors = experiment: CAL33 xenograft in NSG mice; type: in vivo, mouse; conditions: 100 mg/kg PO
Method: (§1) BALB/c nude, NSG, and C57BL/6J mice were obtained from Tianjin Medical University. The housing temperature was controlled, ranging from 20.5–24 °C, and humidity was monitored but not controlled ranging from 30–70%. The 12-h daily light cycle was from 06:00 to 18:00. To generate a murine subcutaneous tumor model, PC3 and HSC2 cells were subcutaneously injected into the right lateral flank of 4- to 5-week-old male BALB/c nude mice. TMD8, CAL33, and S24 cells were subcutaneously injected into the right lateral flank of 4- to 5-week-old male NSG mice. When tumors reached a volume of 300–500 mm^3, they were excised, diced into 2 mm × 2 mm × 2 mm pieces, and implanted into the right flanks of BALB/c nude or NSG mice. Tumors were allowed to grow to a volume of 100 mm^3, and then the animals were randomly divided into several groups. Each group of five mice was treated with either vehicle or KTC1101 (25, 50, or 100 mg/kg, PO). Tumor size was measured every 3 d or 4 d until the endpoint. The tumor volume was calculated using the following formula: length × width × height/2. At the end of the experimental period, mice were euthanized by overdosing on pentobarbital sodium, and the tumors were removed. Tumor tissue was formalin-fixed and paraffin-embedded for histological analysis.

S24 tumors [1] = experiment: S24 tumors in NSG mice; type: in vivo, mouse; conditions: 100 mg/kg daily oral gavage
Method: as §1

tumor cell lines = experiment: Apoptosis analysis; type: cell-based, human; conditions: tested cell lines, 48 h
S24 tumors [2] = experiment: S24 syngeneic model in C57BL/6 mice; type: in vivo, mouse; conditions: S24 in WT C57BL/6 mice, 100 mg/kg daily oral gavage
Method: To generate syngeneic mouse models, S24 and B16 cells were subcutaneously injected into the right lateral flank of 4- to 5-week-old male C57BL/6 mice. Tumors were allowed to grow to a volume of 100 mm^3, and then the animals were randomly divided into several groups. For S24 tumor-bearing mice, each group of five mice was treated with either vehicle or KTC1101 (100 mg/kg, PO). Tumor size was measured every 3 d or 4 d until the endpoint. For B16 tumor-bearing mice, each group of five mice was treated with either vehicle, KTC1101 (50 or 100 mg/kg, PO), anti-PD-1 antibody (250 μg per mouse, clone RPM1-14, Bio X cell, IP), or KTC1101 and anti-PD-1 antibody. Tumor size was monitored every other day, and the tumor was harvested at indicated time points for analysis of tumor-infiltrating lymphocytes. The tumor volume was calculated using the following formula: length × width × height/2.

CD8^+ T cells = experiment: T cell suppression assay (CFSE); type: cell-based; conditions: Mus musculus, 72 h, read-out: IC50 proliferation
Method: (§2) Spleens from naive mice were isolated and ground through 70-μm filters to generate a single-cell suspension. After RBC lysis, single-cell suspensions were stained with CD3, CD8, CD4, CD25 or CD127 antibodies. Viable CD8^+ T cells (CD3^+CD8^+), CD4^+ T cells (CD3^+CD4^+), and Tregs (CD3^+CD4^+CD25^+CD127^low/−) from single-cell suspensions were sorted by FACS. Then T cells were labelled with […] in pre-warmed PBS for 10 min at 37 °C. The CFSE-labelled T cells were seeded in 96-well plates pre-coated with 10 μg/mL CD3 and 1 μg/mL CD28 antibodies and cultured in 1640 media with 10% FBS, 1 mM Sodium Pyruvate (Thermo, 11,360,070), 50 μM β-ME and 100 IU/mL IL2, as well as different concentrations of KTC1101 or solvent control. After 72 h, cells were harvested and the CFSE signal was measured by flow cytometry. Cell growth rate was calculated by the percentage of live, proliferated cell number at each drug concentration vs. solvent control.

CD4^+ T cells = experiment: T cell suppression assay (CFSE); type: cell-based; conditions: Mus musculus, 72 h, read-out: IC50 proliferation
Method: as §2

[3] = tested on: B16 tumor-bearing C57BL/6 mice; experiment: Toxicity and safety profiling in vivo (serum biochemistry, routine blood, H&E); parameters: species or system mouse; conditions: hematological parameters in the blood
Method: The B16 tumor-bearing C57BL/6 mice were divided into 4 groups randomly (n = 3 per group) and treated with vehicle, KTC1101 (100 mg/kg 3on/4off, PO), anti-PD-1 antibody (250 μg per mouse, IP), or a combination of KTC1101 and anti-PD-1 antibody. After 14 days of treatment, all mice were sacrificed. Blood samples were collected for analysis; one portion was centrifuged (3000 rpm, 4 °C) to obtain serum for biochemical parameter analysis, including alanine aminotransferase (ALT), aspartate aminotransferase (AST), creatinine (CREA), and blood urea nitrogen (BUN). The other portion was used for routine blood examination. Major organs including the heart, liver, spleen, lung, and kidney were collected, sectioned, and stained with H&E for histopathological evaluation.

COc1cc(N)cc2c1nc(C(F)F)n2-c1nc(N2CCCOCC2)nc(N2CCOCC2)n1 [KTC1101, 2-(difluoromethyl)-4-methoxy-1-(4-morpholino-6-(1,4-oxazepan-4-yl)-1,3,5-triazin-2-yl)-1H-benzo[d]imidazol-6-amine]
tumor growth (CAL33 tumors): Tumor growth arrest
time until tumors started to progress (S24 tumors [1]): 10 days
induction of apoptosis (tumor cell lines): did not observe a potent induction of apoptosis except HSC2 cell line
time until relapse was detected (S24 tumors [2]): 18 days
IC50 (CD8^+ T cells): 31.7 nM
IC50 (CD4^+ T cells): 16 nM
GRAN [3]: 0.93±0.67 109L-1
MCV [3]: 52.90 ± 8.84 fL
PLT [3]: 745.00±220.75 109L-1
RBC [3]: 6.03±2.50 1012L-1
RDW [3]: 17.97±3.41%
WBC [3]: 3.67±3.06 109L-1
